Where two headings read alike, the source gives them in different places.
Legend:
[1] = target: T1, purified bovine PAO (Bos taurus, UniProt Q29437); design: method as in PMID 27129976, PMID 29550344; settings: substrate 250 µM, 18 µg purified PAO in final volume 100 µL; mean ± SD, n = 3; cited from earlier work
T1 construct: bovine PAO purified from bovine plasma; purchased Abnova, Taipei, Taiwan delivered via Biozol, Eching, Germany; host or cells: bovine plasma
T1 sequence (Q29437 17-762): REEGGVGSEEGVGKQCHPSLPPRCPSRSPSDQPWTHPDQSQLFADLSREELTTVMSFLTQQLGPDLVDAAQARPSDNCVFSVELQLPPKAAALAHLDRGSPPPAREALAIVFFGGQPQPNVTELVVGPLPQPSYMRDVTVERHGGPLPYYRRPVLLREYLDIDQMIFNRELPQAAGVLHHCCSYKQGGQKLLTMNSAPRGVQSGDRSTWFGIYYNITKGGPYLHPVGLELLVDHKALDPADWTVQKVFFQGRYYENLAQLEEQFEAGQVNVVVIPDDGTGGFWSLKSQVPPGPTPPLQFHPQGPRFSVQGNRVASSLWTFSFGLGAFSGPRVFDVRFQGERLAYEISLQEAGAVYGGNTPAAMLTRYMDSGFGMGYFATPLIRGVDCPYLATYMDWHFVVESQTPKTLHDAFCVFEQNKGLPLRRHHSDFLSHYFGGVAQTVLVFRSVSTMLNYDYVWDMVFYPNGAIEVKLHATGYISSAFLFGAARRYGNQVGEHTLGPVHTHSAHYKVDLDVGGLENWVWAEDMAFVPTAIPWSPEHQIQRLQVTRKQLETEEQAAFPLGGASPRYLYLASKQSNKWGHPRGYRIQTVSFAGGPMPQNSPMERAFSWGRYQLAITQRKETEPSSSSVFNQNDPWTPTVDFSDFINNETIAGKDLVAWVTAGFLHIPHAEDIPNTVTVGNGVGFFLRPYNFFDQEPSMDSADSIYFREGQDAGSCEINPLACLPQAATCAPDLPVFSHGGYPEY

[2] = target: T2, PAO in bovine plasma (Bos taurus, UniProt Q29437); test: Conversion of amine substrates by bovine plasma (HPLC-UV); type: biochemical; settings: substrate 250 µM, 6 µL bovine plasma in final volume 100 µL; mean ± SD, n = 3
T2 construct: crude bovine plasma can be used as enzyme source in this assay instead of the purified enzyme; tissue Coesfelder Fleischhandelsgesellschaft, Bernd Grewe (Coesfeld, Germany); host or cells: heparinised bovine blood plasma
T2 sequence (Q29437 17-762): T1 sequence (Q29437 17-762)
Procedure: Determination of the conversion rates of different amine substrates by bovine plasma. The conversion rates of the amine substrates 1–7 to the corresponding aldehydes 8–14 by bovine plasma was measured as described previously, with the modification that the solution of the isolated PAO in PBS (0.19 mg/mL) (95 µL) was replaced by PBS (89 µL) and bovine plasma (6 µL).

[3] = target: T2, PAO in bovine plasma; test: Inhibitor screening with pre-incubation of bovine plasma with the inhibitor (HPLC-UV); type: biochemical; settings: for IC50: with pre-incubation of enzyme and inhibitor (15 min, 37 °C), n = 3; for block of substrate transformation, bovine plasma: 10 µM, pre-incubation conditions
Procedure: General procedure for inhibitor screening with pre-incubation of bovine plasma with the inhibitor. To a DMSO solution of the appropriate inhibitor (concentration variable) (2.5 µL) was added a dilution of bovine plasma in PBS (95 µL), prepared by mixing 89 volume parts of PBS with 6 volume parts of bovine plasma. The resulting mixture was pre-incubated at 37 °C for 15 min. Then the incubation was started at 37 °C by addition of a solution of the substrate 4 (10 mM) in DMSO (2.5 µL). After 45 min, the enzyme reaction was terminated by the addition of acetonitrile (100 µL). The samples were further treated and analysed as described above in the inhibition experiments done without pre-incubation. Controls (n = 3) and a blank were prepared analogously. The experiments using benzylamine (7) as substrate were carried out in the same way with the modifications that aliquots (150 µL) of the supernatants obtained after addition of acetonitrile and centrifugation were diluted with water (150 µL), and acetonitrile/aqueous ammonium acetate solution (10 mM, pH 6) (45:55, v/v) was used as eluent at a detection wavelength of 250 nm.

[4] = target: T2, PAO in bovine plasma; test: Inhibitor screening without pre-incubation of bovine plasma with the inhibitor (HPLC-UV); type: biochemical; settings: n = 3
Procedure: Determination of the IC50-values of the PAO inhibitor 2-(4-phenylphenyl)acetohydrazide (16) with bovine plasma using different substrates.
General procedure for inhibitor screening without pre-incubation of bovine plasma with the inhibitor. A mixture of a DMSO solution of 4 (10 mM) (2.5 µL), a DMSO solution of the appropriate inhibitor (concentration variable) (2.5 µL) and PBS buffer (pH 7.4) (89 µL) was treated with bovine plasma (6 µL). After incubation at 37 °C for 45 min, the enzyme reaction was terminated by the addition of acetonitrile (100 µL). The sample was cooled in an ice bath for 10 min and centrifuged at 12,000 × g and 10 °C for 5 min. An aliquot of the supernatant (150 µL) was diluted with aqueous TRIS buffer (100 mM, pH 8.5 at 20 °C) (150 µL), allowed to stand at room temperature for 30 min, and analysed by HPLC. The HPLC–UV-system consisted of a Thermo Scientific Dionex UltiMate 3000 system including an autosampler and a variable wavelength detector (ThermoFisher Scientific, Germering, Germany). Separation was achieved on a Luna 3 u C8(2) analytical column (3 mm inside diameter× 150 mm, particle size 3 µm) (Phenomenex, Aschaffenburg, Germany) protected with a Phenomenex Phenyl guard column (3 mm inside diameter ×4 mm). The injection volume was 50 µL. Temperature of the autosampler was set to 10 °C, the temperature of the column oven was 20 °C. HPLC analysis was run isocratically using acetonitrile/aqueous TRIS buffer (50 mM, pH 8.5 at 20 °C) (35:65, v/v) as eluent at a flow rate of 0.4 mL/min. […] Controls with DMSO (2.5 µL) instead of a DMSO solution of the inhibitor (2.5 µL) were prepared in the same manner in parallel (n = 3). Furthermore, a blank incubation, in which the enzyme solution was replaced by the buffer used for dissolving the enzyme, was carried out. The relative inhibition values were determined at different inhibitor concentrations and calculated as the ratio of the areas of the 1,3-oxazolidine 15 peaks formed in presence and absence of the test compounds (corrected by the blank value). […] The experiments using benzylamine (7) as substrate were carried out in the same way with the modifications that aliquots (150 µL) of the supernatants obtained after addition of acetonitrile and centrifugation were diluted with water (150 µL) and acetonitrile/aqueous ammonium acetate solution (10 mM, pH 6) (45:55, v/v) was used as eluent at a detection wavelength of 250 nm.

[5] = target: T1, purified bovine PAO; design: method as in PMID 27129976; settings: without pre-incubation, n = 3, cited from earlier work
[6] = target: T1, purified bovine PAO; test: Inhibition of purified bovine PAO without pre-incubation (HPLC-UV); type: biochemical; settings: substrate 3-(5-phenyl-2H-tetrazol-2-yl)propan-1-amine (1), n = 3
Procedure: Determination of the IC50-values of the PAO inhibitor 2-(4-phenylphenyl)acetohydrazide (16) with bovine plasma using different substrates. The IC50-values were measured as described previously (without pre-incubation),[33] with the modification that the solution of the isolated PAO in PBS (0.19 mg/mL) (95 µL) was replaced by PBS (89 µL) and bovine plasma (6 µL).
To evaluate the comparability of inhibition data obtained with the purified enzyme and the crude plasma, we measured the inhibition values of the known PAO inhibitor 2-(4-phenylphenyl)acetohydrazide (16) (for formula see Table 3) using the different amine substrates 1–7. In these experiments, the enzyme was added to a solution containing both substrate and inhibitor. Thus, no pre-incubation of enzyme with the inhibitor took place. […] This may be due to the binding of the inhibitor to plasma proteins leading to a somewhat reduced effective concentration. In addition, consistent differences in the apparent inhibitory potency of the inhibitor 16 in dependence of the substrate applied could be registered for both enzyme preparations. The reason for these fluctuating values lies in strongly different binding affinities of the substrates to the enzyme as discussed recently. […]

[7] = target: T3, purified PAO (Bos taurus, UniProt Q29437); design: method as in PMID 29550344; settings: after pre-incubation 15 min, read-out: IC50, purified enzyme, cited from earlier work
T3 construct: we used the enzyme isolated and purified from bovine plasma; host or cells: bovine plasma
T3 sequence (Q29437 17-762): T1 sequence (Q29437 17-762)

[8] = target: T3, purified PAO; test: Inhibition of purified PAO after pre-incubation of enzyme with inhibitor; type: biochemical, bovine; settings: 10 µM; pre-incubation conditions
Excerpt: 2-(4-Phenylphenyl)acetohydrazide (16) is known to inhibit PAO by forming covalent bonds with the cofactor topaquinone.
Finally, we wanted to confirm that the amine oxidases MAO A, MAO B, and DAO are not involved in substrate conversion by bovine plasma using specific inhibitorsof these enzymes.

[9] = tested on: MAO A; design: method as in PMID 29550344; settings: 0.1 µM; pre-incubation conditions; cited from earlier work
[10] = tested on: DAO; design: method as in PMID 29550344; settings: 10 µM; pre-incubation conditions; cited from earlier work
[11] = substrate benzylamine (7), without pre-incubation of enzyme and inhibitor
[12] = substrate hexan-1-amine 4, without pre-incubation of enzyme and inhibitor

## NCCCn1nnc(-c2ccccc2)n1 [Compound 1, 3-(5-Phenyl-2H-tetrazol-2-yl)propan-1-amine]
[1]
  Conversion of substrate, Purified PAO: 12 ± 0.8%
[2]
  Conversion of substrate, Bovine plasma: 5 ± 0.8%

## NCCCCn1nnc(-c2ccccc2)n1 [Compound 2, 4-(5-Phenyl-2H-tetrazol-2-yl)butan-1-amine]
[1]
  Conversion of substrate, Purified PAO: 55 ± 2.6%
[2]
  Conversion of substrate, Bovine plasma: 66 ± 5.6%

## NCCCCCn1nnc(-c2ccccc2)n1 [Compound 3, 5-(5-Phenyl-2H-tetrazol-2-yl)pentan-1-amine]
[1]
  Conversion of substrate, Purified PAO: 45 ± 1.3%
[2]
  Conversion of substrate, Bovine plasma: 51 ± 4.3%

## NCCCCCCn1nnc(-c2ccccc2)n1 [Compound 4, 6-(5-Phenyl-2H-tetrazol-2-yl)hexan-1-amine]
[1]
  Conversion of substrate, Purified PAO: 57 ± 1.4%
[2]
  Conversion of substrate, Bovine plasma: 51 ± 1.5%

## NCCCCCCCn1nnc(-c2ccccc2)n1 [Compound 5, 7-(5-Phenyl-2H-tetrazol-2-yl)heptan-1-amine]
[1]
  Conversion of substrate, Purified PAO: 30 ± 1.1%
[2]
  Conversion of substrate, Bovine plasma: 23 ± 2.1%

## NCCCCCCCCn1nnc(-c2ccccc2)n1 [Compound 6, 8-(5-Phenyl-2H-tetrazol-2-yl)octan-1-amine]
[1]
  Conversion of substrate, Purified PAO: 25 ± 1.2%
[2]
  Conversion of substrate, Bovine plasma: 26 ± 1.8%

## NCc1ccccc1 [Compound 7, Benzylamine]
[1]
  Conversion of substrate, Purified PAO: 20 ± 2.1%
[2]
  Conversion of substrate, Bovine plasma: 30 ± 2.0%

## NNC(=O)Cc1ccc(-c2ccccc2)cc1 [Compound 16, 2-(4-phenylphenyl)acetohydrazide]
[3]; substrate benzylamine
  IC50: 0.13 ± 0.03 µM
[3]; substrate hexan-1-amine 4
  IC50: 0.23 ± 0.04 µM
[4]; substrate 4-(5-phenyl-2H-tetrazol-2-yl)butan-1-amine (2), without pre-incubation
  IC50: 5.3 ± 0.49 µM
[4]; substrate 5-(5-phenyl-2H-tetrazol-2-yl)pentan-1-amine (3), without pre-incubation
  IC50: 9.7 ± 0.78 µM
[4]; substrate 8-(5-phenyl-2H-tetrazol-2-yl)octan-1-amine (6), without pre-incubation
  IC50: 16 ± 3.4 µM
[4]; [11]
  IC50: 0.29 ± 0.07 µM
[4]; [12]
  IC50: 17 ± 0.8 µM
[5]; substrate 4-(5-phenyl-2H-tetrazol-2-yl)butan-1-amine (2)
  IC50: 2.5 ± 0.3 µM
[5]; substrate 5-(5-phenyl-2H-tetrazol-2-yl)pentan-1-amine (3)
  IC50: 5.4 ± 0.09 µM
[5]; substrate 6-(5-phenyl-2H-tetrazol-2-yl)hexan-1-amine (4)
  IC50: 11 ± 1.2 µM
[5]; substrate 8-(5-phenyl-2H-tetrazol-2-yl)octan-1-amine (6)
  IC50: 11 ± 0.85 µM
[5]; substrate benzylamine (7)
  IC50: 0.12 ± 0.03 µM
[6]
  IC50: 53 ± 3 µM
[7]; substrate 4
  IC50: 0.29 µM
[7]; substrate benzylamine
  IC50: 0.11 µM

## NNC(=O)Cc1cccc(-c2ccccc2)c1 [Compound 18, 2-(3-Phenylphenyl)acetohydrazide]
[3]; substrate benzylamine
  IC50: 0.24 ± 0.03 µM
[3]; substrate hexan-1-amine 4
  IC50: 0.38 ± 0.02 µM
[4]; [11]
  IC50: 0.62 ± 0.05 µM
[4]; [12]
  IC50: 20 ± 1 µM

## C#CCN(C)CCCOc1ccc(Cl)cc1Cl [clorgiline]
[3]
  block of substrate transformation, bovine plasma: neither of these compounds blocked the substrate transformation
[8]
  block of substrate transformation, purified PAO: neither of these compounds blocked the substrate transformation
[9]
  reduction of MAO A activity: more than 95%

## NC(=Nc1ccccc1)NC(=O)c1nc(Cl)c(N)nc1N [phenamil]
[3]
  block of substrate transformation, bovine plasma: neither of these compounds blocked the substrate transformation
[8]
  block of substrate transformation, purified PAO: neither of these compounds blocked the substrate transformation
[10]
  inhibition of DAO: 43%

## C#CCN(C)[C@H](C)Cc1ccccc1 [selegiline]
[3]
  block of substrate transformation, bovine plasma: neither of these compounds blocked the substrate transformation
[8]
  block of substrate transformation, purified PAO: neither of these compounds blocked the substrate transformation

— publication PMC6237158, “HPLC–UV assay for the evaluation of inhibitors of plasma amine oxidase using crude bovine plasma” (Journal of Enzyme Inhibition and Medicinal Chemistry, 2018)
